Test results taken from US20080299076A1, “Compunds and compositions that cause non-apoptotic cell death and uses thereof” (priority 2006, published 2008).
pEC50: −log10 of the molar value.

Assays:
[1] = test system: BJ-TERT/LT/ST/RAS^V12 cells; test: Alamar Blue viability assay; format: cell-based, human
Protocol: (a) Calu-1 lung carcinoma cells harboring oncogenic KRAS were infected with lentivirus containing shRNAs targeting KRAS or GFP. Sequences of shRNAs are indicated by starting nucleotide (nt) in the KRAS mRNA coding sequence. Cells were treated with erastin and viability measured by Trypan Blue exclusion. (b) Knockdown of KRAS was confirmed by western blot. (c,d) A673 cells harboring oncogenic BRAF were infected with lentiviral shRNAs targeting BRAF exon 5 (c) or the 5′ UTR (d), luciferase (LUC) (c) or GFP (d). Cells were treated with erastin and viability measured using Alamar Blue (c) and Trypan Blue (d). (e) Knockdown of BRAF was confirmed by western blot. […] BJ-TERT/LT/ST/RAS^V12 cells were treated with erastin alone or in with a MEK inhibitor U0126 (20 μM), MEK inhibitor I (10 μM) or MEK 1/2 inhibitor (50 μM). After 48 h, viability was determined using Trypan Blue. (g) Structures of certain erastin and related analogs. (h) and (i) Dose-response curves were measured for erastin A3 and erastin B2 in BJ-TERT/LT/ST/RAS^V12 cells (black squares) or BJ-TERT cells (grey circles). (j) Calu-1 lung carcinoma cells harboring oncogenic KRAS were infected with lentivirus containing shRNAs targeting KRAS or GFP. Sequences of shRNAs are indicated by starting nucleotide (nt) in the KRAS mRNA coding sequence. Cells were treated with erastin and viability (y-axis) measured by Trypan Blue exclusion. Cells were treated with erastin for 24 hours, and percent inhibition of viability (y-axis) measured using Alamar Blue (k) and Trypan Blue (l). (m) Structures of erastin and related analogs. (n) Dose-response curves were measured for erastin A6, erastin B2, erastin A8 and erastin A9 in BJ-TERT/LT/ST/RAS^V12 cells (squares) or BJ-TERT cells (circles) using Alamar Blue.
Alamar Blue metabolism: 10% Alamar Blue was added to assay plates, which were then incubated for an additional 16 hours. Red fluorescence, resulting from reduction of Alamar Blue, was detected on a Victor3 platereader (ex: 530, em: 590).
Table 2. Activity of RAS-selective lethal compound erastin in tumor cell lines. IC50 values (ng/mL) are shown using the Alamar Blue viability assay. BJ engineered tumor cells express TERT, LT, ST, and oncogenic RAS. Isogenic RAS^V12 lacking cells are identical but lack HRAS^V12. BJ-DRD cells are derived from BJ cells and contain TERT, oncogenic RAS, a truncated from of p53 (p53DD) that disrupts the tetramerization of endogenous p53, a CDK4(R24C) mutant resistant to inhibition by p16INK4A and p151NK4B (the major negative regulators of CDK4) and cyclin D1. These latter protein substitute for LT. HCT-116, A549, Calu-1, and MIA PaCa-2 are tumor cells derived from cancers (colon, lung, lung and pancreatic, respectively) known to have activating mutations in RAS.

A673 = test: Response of tumor cell lines to erastin (dose-response); format: cell-based, human
Protocol: (§1) Given that oncogenic RAS activates at least four downstream pathways, analysis was performed to identify which downstream effects were necessary for erastin sensitivity. In certain embodiments, the invention provides that erastin inhibits growth and kills genuine tumor cells with RAS mutations. In other embodiments, the invention provides measures of the dose-response of 29 tumor cell lines to erastin, wherein there is at least 50% inhibition of viability in 18 of the cell lines (Table 4). Numerous sarcoma-derived tumor cell lines were sensitive to erastin, consistent with the fact that erastin was discovered in an engineered tumor cell line created from human fibroblasts.

BJEH = test: as above; format: cell-based, human
Protocol: as §1

BJELR = test: as above; format: cell-based, human
Protocol: as §1

HT1080 = test: as above; format: cell-based, human
Protocol: as §1

[2] = test system: BJ-TERT/LT/ST/RAS^V12 cells; test: Mitochondrial membrane potential (JC-1 stain); format: cell-based, human; conditions: after 13 hours of treatment
Protocol: In certain embodiments, there is loss of mitochondrial membrane potential in >70% of BJ-TERT/LT/ST/RAS^V12 cells after 13 hours of erastin A1 treatment (JC-1 stain), and morphological changes in mitochondria examined by EM, consistent with the notion that erastin induces mitochondrial dysfunction.

PARP1 = PARP1 cleavage (western blot); format: cell-based, human; conditions: BJ-TERT/LT/ST/RAS^V12 cells; staurosporine 1 μM 6 h, camptothecin 1 μM 18 h, erastin 20 μg/mL
Protocol: BJ-TERT/LT/ST/RAS^V12 tumor cells were seeded in six-well dishes, incubated overnight at 37° C. with 5% CO2 and were treated with nothing (NT), staurosporine (ST, 1 μM) for 6 h, camptothecin (C, 1 μM) for 18 h, or erastin (20 μg/mL) for the indicated time, lysed and analyzed by western blot with an anti-PARP1 antibody. A relatively high concentration of erastin was used to ensure loss of PARP cleavage was not due to a concentration-dependent effect.
BJ-TERT/LT/ST/RAS^V12 cells were seeded in polystyrene 100×20 mm dishes (Falcon/#353003) in 10 ml of media. Three million cells were seeded in each dish. After overnight incubation at 37° C. with 5% CO2, BJ-TERT/LT/ST/RAS^V12 cells were treated with nothing, staurosporine (1 μM) for 6 h, camptothecin (1 μM) for 18 h or erastin (20 μg/mL) for 6, 10, 12, 12.5, 13, 14, 18 or 26 h, and prepared for western blotting.

Caspase-3 = Caspase-3 cleavage (western blot); format: cell-based

With CCOc1ccccc1-n1c(C(C)N2CCN(C(=O)COc3ccc(Cl)cc3)CC2)nc2ccccc2c1=O (centres unmarked) [erastin, 2-(1-{4-[2-(4-Chloro-phenoxy)-acetyl]-piperazin-1-yl}-ethyl)-3-(2-ethoxy-phenyl)-3H-quinazolin-4-one] the RAS-selective lethality ([1]; HRAS^V12-expressing versus HRAS^V12-deficient cells) was “at least 16 fold”, the RAS selectivity ([1]; IC50 in BJ-TERT/LT/ST versus BJ-TERT/LT/ST/RAS^V12) was greater than 16 and the “Erastin Sensitivity (maximum percent killing, as fraction)” value (A673; A673) was 0.54. The Max % killing (A673; A673, Ewing sarcoma) was 54%, the pEC50 (A673; Homo sapiens, A673) was 4.52 and the “Erastin Sensitivity (maximum percent killing, as fraction)” value (BJEH; BJ-TERT) was 0.22. For the same molecule, the Max % killing (BJEH; BJEH, foreskin fibroblast w/TERT) was 22%, the pEC50 (BJEH; Homo sapiens, BJeH) was 5.00 and the “Erastin Sensitivity (maximum percent killing, as fraction)” value (BJELR; BJ-TERT/LT/ST/RAS^V12) was 1.00. For the same molecule, the Max % killing (BJELR; BJELR, foreskin fibroblasts w/TERT, LT, ST, RAS) was 100%, the pEC50 (BJELR; Homo sapiens, BJeLR) was 5.22 and the “Erastin Sensitivity (maximum percent killing, as fraction)” value (HT1080; HT 1080) was 0.98. For the same molecule, the Max % killing (HT1080; HT1080, Fibrosarcoma) was 98%, the pEC50 (HT1080; Homo sapiens, HT-1080, HT1080) was 5.70 and the “cells with loss of mitochondrial membrane potential” value [2] was greater than 70%. For the same molecule, the PARP1 cleavage (PARP1) was “unaffected” and the Caspase-3 cleavage (Caspase-3) was “not cleaved”.
